Data taken from article PMC10502144, “Anti-methicillin-resistant Staphylococcus aureus activity and safety evaluation of 14-O-[(5-ethoxycarbonyl-4,6-dimethylpyrimidine-2-yl) thioacetyl] mutilin (EDT)” (Scientific Reports, 2023).
Values after ≈ are worked out from the molar mass of the structure shown. Where two headings read alike, the source gives them in different places.

How the values were obtained:
[1] = Microsomal stability assay, mouse; type: in vitro ADME; settings: mouse liver microsomes
Method: (§1) Mouse and human liver microsomes were thawed slowly on ice. A total of 5 mg/mL of microsomes, 2 μL of a 100 μM solution of EDT and 183 μL of 100 mM phosphate buffer were incubated 5 min at 37 °C in a water bath. Reactions were initiated using 10 μL of 20 mM NADPH. Samples were incubated in three replicates at 37 °C under gentle agitation at 150 rpm. At 0, 5, 15, 30, and 60 min, reactions were terminated by the addition of 180 μL of acetonitrile. After centrifugation (4000 rpm, 10 min), samples were then analyzed by liquid chromatography/tandem mass spectrometry (LC–MS/MS). Peak areas of the respective time point of the compound were normalized to the peak area at time point 0 min. Then half-life was calculated using linear regression from log percentage (t1/2 = − 0.693/k).

[2] = system: Escherichia coli WP2uvrA pKM101; experiment: Ames test, pKM101
Method: (§2) Before the test, Salmonella Typhimurium (S. Typhimurium) TA97a, TA98, TA100, TA102, TA1535 and Escherichia coli WP2uvrA pKM101 (pKM101) were first checked for their genetic integrity, including biotin dependence, rfa marker (crystal violet), biotin, histidine dependence and presence of the plasmid pKM101 (ampicillin resistance) or pAQ1 (tetracycline resistance). […] The maximum concentration of EDT was also screened using a preliminary experiment.
(§3) DMSO (0.1 mL) was directly incorporated into 1.9 mL melted top agar as the vehicle control. […] Each strain (0.1 mL, 6–7 log10 CFU/mL) was added into 2 mL of top agar in which comprised 0.5 mL S9 (10%), serial concentrations of EDT (2000, 400, 80, 16 and 3.2 μg/plate), DMSO or control chemicals for testing with the S9. For testing without S9, 0.5 mL phosphate buffer saline (PBS, pH 7.4) replaced the S9 mix. Then, the obtained top agar was melted, poured onto the surface of […] and swirled to distribute the top agar to all surfaces of medium, followed by incubation at 37 °C for 48 h. The resultant colonies were counted manually as the number of revertant colonies per plate. The experiments were performed in triplicate and the results were expressed as the average ± SD.

[3] = system: S. Typhimurium TA97a, TA98, TA100, TA102, TA1535 and Escherichia coli WP2uvrA pKM101; experiment: Ames test, all tested strains (overall result and preliminary dose finding); type: cell-based, Salmonella Typhimurium; Escherichia coli
Method: as §2, §3

[4] = Microsomal stability assay, human; type: in vitro ADME; settings: human liver microsomes
Method: as §1

[5] = system: Salmonella Typhimurium TA97a; experiment: Ames test, TA97a
Method: as §2, §3

[6] = system: clinical isolates of MRSA; experiment: MIC by broth serial-dilution against 48 clinical isolates of MRSA; type: cell-based, methicillin-resistant Staphylococcus aureus
Method: The tests against 48 clinical isolates of MRSA from dairy farms in 4 different provinces in China[37] were conducted in triplicate, using broth serial-dilution method in 96-well plates according to CLSI reference methods. Briefly, EDT and tiamulin fumarate used as referent drug were dissolved in 25% dimethyl sulfoxide (DMSO) to a solution with concentration of 64 μg/mL. The obtained 100 μL solutions were then added into the first column of the 96-well plate, and diluted to the tenth well with serial twofold dilutions. The last two wells were used as positive controls. The 100 μL bacterial suspension was diluted in MHB to give a final organism density of to 10^5 ~ 10^6 colony-forming unit (CFU) per 1 mL and added to all the wells, followed by incubating at 37 °C for 24 h. […] The results were expressed as an average of the MICs obtained from three independent experiments.

SMILES: C=CC1(C)CC(OC(=O)CSc2nc(C)c(C(=O)OCC)c(C)n2)C2(C)C(C)CCC3(CCC(=O)C32)C(C)C1O (stereo not drawn) [EDT, 14-O-[(5-ethoxycarbonyl-4,6-dimethylpyrimidine-2-yl)thioacetyl] mutilin]
- half-life at 1 μM [1]: 30.1 min
- microsomal CLint at 1 μM [1]: 46 µL/min/mg
- number of revertant colonies per plate ([2]; pKM101, 3.2 μg/plate, +S9): 50.33 ± 2.67
- number of revertant colonies per plate ([2]; pKM101, 3.2 μg/plate, −S9): 42.00 ± 3.00
- number of revertant colonies per plate ([2]; pKM101, 16 μg/plate, +S9): 54.00 ± 4.00
- number of revertant colonies per plate ([2]; pKM101, 16 μg/plate, −S9): 46.00 ± 5.00
- number of revertant colonies per plate ([2]; pKM101, 80 μg/plate, +S9): 44.00 ± 4.00
- number of revertant colonies per plate ([2]; pKM101, 80 μg/plate, −S9): 41.33 ± 3.67
- number of revertant colonies per plate ([2]; pKM101, 400 μg/plate, +S9): 53.00 ± 5.00
- number of revertant colonies per plate ([2]; pKM101, 400 μg/plate, −S9): 51.33 ± 3.67
- number of revertant colonies per plate ([2]; pKM101, 2000 μg/plate, +S9): 50.33 ± 3.67
- number of revertant colonies per plate ([2]; pKM101, 2000 μg/plate, −S9): 47.00 ± 4.00
- toxicity to the test strains, preliminary experiment ([3]; 2000 μg/plate): not toxic
- toxicity to the test strains, preliminary experiment ([3]; 5000 μg/plate): inhibited the test strains
- number of revertant colonies compared with the vehicle control ([3]; 3.2-2000 μg/plate, −S9 and +S9, all strains): no significantly different
- half-life at 1 μM [4]: 43.6 min
- microsomal CLint at 1 μM [4]: 31.8 µL/min/mg
- number of revertant colonies per plate ([5]; 3.2 μg/plate, +S9): 57.67 ± 4.33
- number of revertant colonies per plate ([5]; 3.2 μg/plate, −S9): 52.00 ± 3.00
- number of revertant colonies per plate ([5]; 16 μg/plate, +S9): 46.00 ± 4.00
- number of revertant colonies per plate ([5]; 16 μg/plate, −S9): 44.33 ± 5.67
- number of revertant colonies per plate ([5]; 80 μg/plate, +S9): 50.33 ± 3.67
- number of revertant colonies per plate ([5]; 80 μg/plate, −S9): 53.33 ± 5.67
- number of revertant colonies per plate ([5]; 400 μg/plate, +S9): 54.33 ± 4.67
- number of revertant colonies per plate ([5]; 400 μg/plate, −S9): 56.00 ± 3.00
- number of revertant colonies per plate ([5]; 2000 μg/plate, +S9): 44.00 ± 5.00
- number of revertant colonies per plate ([5]; 2000 μg/plate, −S9): 52.00 ± 6.00
- MIC ([6]; Staphylococcus aureus, MRSA, read-out: MIC values against 48 strains, range over 48 clinical isolates of MRSA): 0.0313 to 0.0625 µg/mL (≈ 0.0546 to 0.109 µM)
- inhibition at 0.0625 µg/mL ([6]; Staphylococcus aureus, MRSA, read-out: strains inhibited): 97.9%
- MIC ([6]; Staphylococcus aureus, MRSA, strain CX1): 0.0313 µg/mL (≈ 0.0546 µM)
- MIC ([6]; Staphylococcus aureus, MRSA, strain CX2): 0.0313 µg/mL (≈ 0.0546 µM)
- MIC ([6]; Staphylococcus aureus, MRSA, strain CX5): 0.0313 µg/mL (≈ 0.0546 µM)
- MIC ([6]; Staphylococcus aureus, MRSA, strain CX6): 0.0313 µg/mL (≈ 0.0546 µM)
- MIC ([6]; Staphylococcus aureus, MRSA, strain CX7): 0.0625 µg/mL (≈ 0.109 µM)
- MIC ([6]; Staphylococcus aureus, MRSA, strain CX9): 0.125 µg/mL (≈ 0.218 µM)
- MIC ([6]; Staphylococcus aureus, MRSA, strain HG1): 0.0313 µg/mL (≈ 0.0546 µM)
- MIC ([6]; Staphylococcus aureus, MRSA, strain HG2): 0.0313 µg/mL (≈ 0.0546 µM)
- MIC ([6]; Staphylococcus aureus, MRSA, strain HG3): 0.0313 µg/mL (≈ 0.0546 µM)
- MIC ([6]; Staphylococcus aureus, MRSA, strain HG4): 0.0313 µg/mL (≈ 0.0546 µM)
- MIC ([6]; Staphylococcus aureus, MRSA, strain HG5): 0.0313 µg/mL (≈ 0.0546 µM)
- MIC ([6]; Staphylococcus aureus, MRSA, strain HG6): 0.0313 µg/mL (≈ 0.0546 µM)
- MIC ([6]; Staphylococcus aureus, MRSA, strain HG7): 0.0625 µg/mL (≈ 0.109 µM)
- MIC ([6]; Staphylococcus aureus, MRSA, strain QY4): 0.0313 µg/mL (≈ 0.0546 µM)
- MIC ([6]; Staphylococcus aureus, MRSA, strain QY5): 0.0313 µg/mL (≈ 0.0546 µM)
- MIC ([6]; Staphylococcus aureus, MRSA, strain QY6): 0.0625 µg/mL (≈ 0.109 µM)
- MIC ([6]; Staphylococcus aureus, MRSA, strain QY8): 0.0313 µg/mL (≈ 0.0546 µM)
- MIC ([6]; Staphylococcus aureus, MRSA, strain QY10): 0.0625 µg/mL (≈ 0.109 µM)
- MIC ([6]; Staphylococcus aureus, MRSA, strain SH3): 0.0313 µg/mL (≈ 0.0546 µM)
- MIC ([6]; Staphylococcus aureus, MRSA, strain SH4): 0.0313 µg/mL (≈ 0.0546 µM)
- MIC ([6]; Staphylococcus aureus, MRSA, strain SH6): 0.0313 µg/mL (≈ 0.0546 µM)
- MIC ([6]; Staphylococcus aureus, MRSA, strain SH7): 0.0625 µg/mL (≈ 0.109 µM)
- MIC ([6]; Staphylococcus aureus, MRSA, strain SH8): 0.0313 µg/mL (≈ 0.0546 µM)
- MIC ([6]; Staphylococcus aureus, MRSA, strain SH9): 0.0313 µg/mL (≈ 0.0546 µM)
- MIC ([6]; Staphylococcus aureus, MRSA, strain SH10): 0.0313 µg/mL (≈ 0.0546 µM)
- MIC ([6]; Staphylococcus aureus, MRSA, strain SH11): 0.0313 µg/mL (≈ 0.0546 µM)
- MIC ([6]; Staphylococcus aureus, MRSA, strain SH12): 0.0313 µg/mL (≈ 0.0546 µM)
- MIC ([6]; Staphylococcus aureus, MRSA, strain SH13): 0.0313 µg/mL (≈ 0.0546 µM)
- MIC ([6]; Staphylococcus aureus, MRSA, strain SH14): 0.0313 µg/mL (≈ 0.0546 µM)
- MIC ([6]; Staphylococcus aureus, MRSA, strain SH15): 0.0313 µg/mL (≈ 0.0546 µM)
- MIC ([6]; Staphylococcus aureus, MRSA, strain SX5): 0.0313 µg/mL (≈ 0.0546 µM)
- MIC ([6]; Staphylococcus aureus, MRSA, strain SX6): 0.0313 µg/mL (≈ 0.0546 µM)
- MIC ([6]; Staphylococcus aureus, MRSA, strain SX7): 0.0313 µg/mL (≈ 0.0546 µM)
- MIC ([6]; Staphylococcus aureus, MRSA, strain SX8): 0.0313 µg/mL (≈ 0.0546 µM)
- MIC ([6]; Staphylococcus aureus, MRSA, strain SX9): 0.0313 µg/mL (≈ 0.0546 µM)
- MIC ([6]; Staphylococcus aureus, MRSA, strain SX10): 0.0313 µg/mL (≈ 0.0546 µM)
- MIC ([6]; Staphylococcus aureus, MRSA, strain SX16): 0.0625 µg/mL (≈ 0.109 µM)
- MIC ([6]; Staphylococcus aureus, MRSA, strain SX17): 0.0313 µg/mL (≈ 0.0546 µM)
- MIC ([6]; Staphylococcus aureus, MRSA, strain SX18): 0.0313 µg/mL (≈ 0.0546 µM)
- MIC ([6]; Staphylococcus aureus, MRSA, strain ZY1): 0.0313 µg/mL (≈ 0.0546 µM)
- MIC ([6]; Staphylococcus aureus, MRSA, strain ZY2): 0.0313 µg/mL (≈ 0.0546 µM)
- MIC ([6]; Staphylococcus aureus, MRSA, strain ZY3): 0.0313 µg/mL (≈ 0.0546 µM)
- MIC ([6]; Staphylococcus aureus, MRSA, strain ZY4): 0.0313 µg/mL (≈ 0.0546 µM)
- MIC ([6]; Staphylococcus aureus, MRSA, strain ZY5): 0.0313 µg/mL (≈ 0.0546 µM)
- MIC ([6]; Staphylococcus aureus, MRSA, strain ZY6): 0.0313 µg/mL (≈ 0.0546 µM)
- MIC ([6]; Staphylococcus aureus, MRSA, strain ZY7): 0.0313 µg/mL (≈ 0.0546 µM)
- MIC ([6]; Staphylococcus aureus, MRSA, strain ZY8): 0.0625 µg/mL (≈ 0.109 µM)
- MIC ([6]; Staphylococcus aureus, MRSA, strain ZY9): 0.0313 µg/mL (≈ 0.0546 µM)
- MIC values against 48 strains ([6]; range over 48 clinical isolates of MRSA): 0.0313 to 0.125 µg/mL
